Measurements from patent publication US20080319017A2, “Non-Anilinic Derivatives of Isothiazol-3(2H)-Thione 1,1-Dioxides As Liver X Receptor Modulators” (ASTRAZENECA AB, priority 2005, published 2008).

Target: T1, human LXRalpha (Homo sapiens, UniProt Q13133)
T1 construct: human LXRalpha (amino acid 205-447); expressed in transfected cells; host or cells: U2/OS osteosarcoma cells, electroporated with pSGGAL-LXRalpha (pSG5 backbone)
T1 sequence (Q13133 205-447): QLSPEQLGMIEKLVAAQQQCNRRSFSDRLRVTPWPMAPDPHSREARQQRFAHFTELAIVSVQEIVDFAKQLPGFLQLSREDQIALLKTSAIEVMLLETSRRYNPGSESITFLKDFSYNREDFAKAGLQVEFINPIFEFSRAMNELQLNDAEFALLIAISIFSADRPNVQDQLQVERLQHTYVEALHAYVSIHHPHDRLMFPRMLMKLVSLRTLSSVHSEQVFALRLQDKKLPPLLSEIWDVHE
Assay: Transactivation assay (reporter gene assay), GAL4-LXRalpha LBD luciferase in U2/OS cells
Type: cell-based
Conditions: U2/OS osteosarcoma cells, 48 h incubation, read-out: EC50 for LXRα in the reporter gene assay
Method: Expression vectors were prepared by inserting the ligand binding domain cDNA (complementary DNA) of human LXRalpha (amino acid 205-447) and LXRbeta (amino acid 216-461) in frame with, 3′ to the yeast GAL4 transcription factor DNA binding domain and the nuclear localization signal from the T-antigen of Polyoma Virus in the eucaryotic expression vector pSG5 (Stratagene). The resulting expression vectors pSGGAL-LXRalpha and pSGGAL-LXRbeta were used in cotransfection experiments together with the pGL3 luciferase reporter plasmid containing a minimal SV40 promoter (Promega) and five copies of the UAS GAL4 recognition site. 2.5 μg pSGGAL-LXRalpha or beta were mixed with 25 μg pGL3 5×UAS and 22.5 μg pBluscript (Stratagene) in 0.95 mL ice cold PBS containing approx. 4-9 milj. U2/OS osteosarcoma cells. After a five minute incubation on ice the cell/DNA mixture was electroporated in 0.4 cm cuvettes at 960 μF, 230 V using a BioRad electroporator and diluted to 0.32 milj cells/mL in complete DMEM [Dulbecco's Modified Eagle Medium w/o phenol red, (Gibco 11880-028) including 10% FBS (Foetal Bovine Serum), 1% PEST (Penicillin Streptomycin), 20 mM Hepes, 2 mM L-Glutamine and 0.36% Glucose Gibco 31966-021] medium. […] Luciferase activity was measured as Luminescence in the Wallac Victor reader after 15 min. incubation at room temperature. […]

EC50	Compound
3.1 µM	CC(C)N1C(=S)C(NC2CCN(c3ncc(C(F)(F)F)cc3Cl)CC2)=C(c2ccccc2)S1(=O)=O [Example 1, 4-({1-[3-Chloro-5-(trifluoromethyl)pyridin-2-yl]piperidin-4-yl}amino)-2-isopropyl-5-phenylisothiazole-3(2H)-thione 1,1-dioxide]
10.5 µM	CC(C)N1C(=S)C(NCCCCc2ccccc2)=C(c2ccccc2)S1(=O)=O [Example 2, 2-Isopropyl-5-phenyl-4-[(4-phenylbutyl)amino]isothiazole-3(2H)-thione 1,1-dioxide]
